Measurements published in patent US11358969B2, “Indole AHR inhibitors and uses thereof” (Ikena Oncology, Inc., priority 2017, dated 2022).

How the values were obtained:
AHR = biological target: T1, AHR (UniProt P35869); assay: DRE-Luciferase Reporter Assay (Example 1A); format: cell-based, murine or human; details: cell line and AHR activating ligand not specified
T1 construct: IC50
T1 sequence (P35869 1-848): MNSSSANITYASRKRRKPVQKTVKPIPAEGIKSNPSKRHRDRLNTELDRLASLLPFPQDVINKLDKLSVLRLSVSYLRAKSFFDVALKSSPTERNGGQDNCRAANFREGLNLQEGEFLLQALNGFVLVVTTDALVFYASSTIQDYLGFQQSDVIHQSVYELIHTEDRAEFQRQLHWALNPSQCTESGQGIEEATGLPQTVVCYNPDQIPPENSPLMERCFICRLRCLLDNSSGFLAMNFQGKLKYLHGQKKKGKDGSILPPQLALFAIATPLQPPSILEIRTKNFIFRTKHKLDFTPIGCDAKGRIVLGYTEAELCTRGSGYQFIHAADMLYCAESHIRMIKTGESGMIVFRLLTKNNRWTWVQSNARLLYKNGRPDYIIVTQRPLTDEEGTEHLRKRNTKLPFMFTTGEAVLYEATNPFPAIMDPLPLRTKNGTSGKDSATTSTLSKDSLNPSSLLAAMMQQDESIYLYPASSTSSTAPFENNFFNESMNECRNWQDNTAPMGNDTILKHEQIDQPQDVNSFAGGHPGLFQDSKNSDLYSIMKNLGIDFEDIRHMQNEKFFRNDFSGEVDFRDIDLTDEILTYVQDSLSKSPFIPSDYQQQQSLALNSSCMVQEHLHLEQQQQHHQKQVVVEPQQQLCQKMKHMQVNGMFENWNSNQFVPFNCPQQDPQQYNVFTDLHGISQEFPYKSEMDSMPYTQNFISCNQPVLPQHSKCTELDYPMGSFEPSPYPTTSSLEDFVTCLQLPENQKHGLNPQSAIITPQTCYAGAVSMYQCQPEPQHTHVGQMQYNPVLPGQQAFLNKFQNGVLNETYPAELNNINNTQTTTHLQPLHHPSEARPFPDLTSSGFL
Description: AHR binds to Dioxin Responsive Elements (DRE) upstream of genes that it activates. One measure of AHR activity is activation of a reporter gene, such as luciferase, downstream of one or multiple DRE elements. Luciferase activity will reflect activation and inhibition of AHR in the cells expressing his reporter.
Murine Hepa1-6 or Hepa-1c1c7 or other murine cell line with a DRE-luciferase reporter either stably or transiently transfected were plated in media in plates (96-well, 384-well or other plates) and incubated overnight at 37° C. in a CO2 incubator. Likewise, human HepG2 or other human cell line with a DRE-luciferase reporter either stably or transiently transfected were plated in media in plates (96-well, 384-well or other plates) and incubated overnight at 37° C. in a CO2 incubator.
The next day, an AHR activating ligand, such as TCDD, kynurenine, ITE (2-(1H-indole-3-ylcarbonyl)-4-thiazolecarboxylic methyl ester), VAF347, BNF (beta-naphthoflavone), FICZ (6-formylindolo(3,2-b) carbazole or other AHR ligands, was added with or without AHR antagonist.
Cells were incubated for 4, 15 or 24 hours or another time point and then lysed for determination of luciferase activity as a read-out of the AHR activation or inhibition. Luciferase was measured with a commercial kit such as the Promega Luciferase kit or any kit or reagents that provide the luciferin substrate for measuring luciferase activity. The level of luciferase with only activating ligand added was the maximum signal while the luciferase with no ligand was the minimum signal. IC50 values were determined as the concentration which inhibits half of the luciferase activity.

B16-IDO murine melanoma = assay: Efficacy study in the mouse melanoma model B16-IDO (Example 1H); format: in vivo; details: B16-IDO in C57BL/6 mice, FIG. 4
Description: B16-IDO is a murine melanoma carcinoma cell line that has been engineered to overexpress IDO1 (Holmgaard, 2015 Cell Reports). B16-IDO cells were cultured in DMEM supplemented with 10% FBS. 2×10^5 B16-IDO cells in 50 μl PBS were implanted intradermally in 6-8 week old female, C57BL/6 mice. Dosing for the efficacy study starts 7 days post implant: AHR antagonist I-70 was dosed orally, every day (QD) at or 10 mg/kg for 2 weeks. Anti-PD-1 (BioXcell RMP1-14) was administered every 3rd day, intraperitoneally (IP) at 250 μg/mouse for five total doses. Tumors were monitored by caliper measurement every 2-3 days and body weight measured three times per week.

| IC50 (AHR) [nM] | SMILES | Tumor growth (B16-IDO murine melanoma; I-70 alone, orally QD 10 mg/kg for 2 weeks) | Tumor growth (B16-IDO murine melanoma; I-70 in combination with anti-PD-1 (IP 250 μg/mouse every 3rd day)) |
| --- | --- | --- | --- |
| < 500 | CC(C)c1cnn2c(NCCc3c[nH]c4ccccc34)cc(-c3cncc(F)c3)nc12 [I-2, N-(2-(1H-indol-3-yl)ethyl)-5-(5-fluoropyridin-3-yl)-3-isopropylpyrazolo[1,5-a]pyrimidin-7-amine] |  |  |
|  | Cc1cnn2c(NCCc3c[nH]c4ccccc34)cc(-c3cncc(F)c3)nc12 [I-70, 5-(5-Fluoro-3-pyridyl)-N-[2-(1H-indol-3-yl)ethyl]-3-methyl-pyrazolo[1,5-a]pyrimidin-7-amine] | inhibited | inhibited |
